Measurements reported in the NIST ThermoML archive (doi:10.1021/je101058b).

Details: Liquid, Pycnometric method

c1ccc2c(c1)ccc1ccccc12 [phenanthrene]
molar volume [m3/mol]
Details | 377.69 K | 385.54 K | 393.38 K | 401.26 K | 409.13 K | 417.06 K | 424.84 K
2049 kPa | 0.0001679 | 0.0001688 | 0.0001698 | 0.0001708 | 0.0001717 | 0.0001728 | 0.0001738
4049 kPa | 0.0001677 | 0.0001686 | 0.0001696 | 0.0001705 | 0.0001715 | 0.0001726 | 0.0001735
6049 kPa | 0.0001674 | 0.0001683 | 0.0001692 | 0.0001702 | 0.0001712 | 0.0001723 | 0.0001732
8049 kPa | 0.0001672 | 0.0001681 | 0.000169 | 0.00017 | 0.000171 | 0.0001719 | 0.0001729
10049 kPa | 0.000167 | 0.0001679 | 0.0001689 | 0.0001698 | 0.0001709 | 0.0001718 | 0.0001727
